Source: patent US5283236A, “Systemic delivery of polypeptides through the eye” (Orbon Corporation, priority 1992, dated 1994)

What was measured:
normal rabbits [1] = assay: Blood glucose after insulin eye drops with absorption enhancers; format: in vivo, New Zealand white female rabbits; settings: eye drops: 1% insulin plus 1% absorption enhancer (Control: no enhancer)
[2] = Insulin absorption from eye drops with absorption enhancers (blood insulin); format: in vivo, New Zealand white female rabbits; settings: eye drops: 1% insulin plus 1% absorption enhancer (Control: no enhancer)
[3] = Penetration of insulin into eyeballs with absorption enhancers; format: in vivo, rabbits; settings: 1% insulin plus 1% enhancer (Control: 1% insulin only)
[4] = rabbit, in vivo
Description: The concentrations of peptides in the blood were expressed in ng/ml.

[5] = Enkephalin-equivalent remaining in eye tissues at the end of 12 hr experiment; format: in vivo, New Zealand white female rabbits
[6] = Blood enkephalin-equivalent concentration after ocular or i.v. enkephalin; format: in vivo, New Zealand white female rabbits; settings: enkephalin 50 ug i.v.
normal rabbits [7] = assay: Blood glucose after ocular or i.v. glucagon in normal rabbits; format: in vivo, New Zealand white female rabbits; settings: for blood glucose raised to: in 30 min

Which results are given for `C[N+](C)(C)CCCCCCCCCC[N+](C)(C)C` [Decamethonium, decamethonium bromide]?
% Change in Blood Glucose Concentration (normal rabbits [1]): 8%; Blood Glucose Concentration Before (normal rabbits [1]): 90 ± 3 mg %; Insulin peak Concentration [2]: 10.8 ± 1.8 ng/mL

Which “Absolute amount of insulin in the eyeball” value [3] does the source give for `C[C@H](CCC(=O)NCC(=O)O)[C@H]1CC[C@H]2[C@@H]3[C@H](O)C[C@@H]4C[C@H](O)CC[C@]4(C)[C@H]3C[C@H](O)[C@]12C` [Glycocholate, sodium glycocholate] here?
Its value is 200 ng.

Which results are given for `CC(C)C[C@H](NC(=O)CNC(=O)[C@H](Cc1ccc(O)cc1)NC(=O)[C@H](CO)NC(=O)[C@H](Cc1c[nH]c2ccccc12)NC(=O)[C@H](Cc1cnc[nH]1)NC(=O)[C@@H]1CCC(=O)N1)C(=O)N[C@@H](CCCNC(=N)N)C(=O)N1CCC[C@H]1C(=O)NCC(N)=O` [LHRH, luteinizing hormone-releasing hormone]?
LHRH eye drop concentration sufficient to reach therapeutic effective blood concentration [4]: ≥ 0.005%; Tx of blood LHRH ([4]; iv): approximately 15 min

Which results are given for `NC(=O)[C@@H]1CCCN1C(=O)[C@H](Cc1cnc[nH]1)NC(=O)[C@@H]1CCC(=O)N1` [TRH, Thyrotrophin-releasing hormone]?
TRH eye drop concentration giving a therapeutic blood concentration [4]: ≥ 0.0025%; Tx of blood TRH ([4]; iv): approximately 10 min

What does the source list for `CC(C)C[C@H](NC(=O)[C@H](Cc1ccccc1)NC(=O)CNC(=O)CNC(=O)[C@@H](N)Cc1ccc(O)cc1)C(=O)O` [enkephalin, Leucine-enkephalin (5-L-leucine)]?
Residual amount of enkephalin remaining in tissues, % of instilled, Total ([5]; 1% enkephalin): 0.1713%; Residual amount of enkephalin remaining in tissues, Amount, Total ([5]; 1% enkephalin): 428.28 ng; Residual amount of enkephalin remaining in tissues, % of instilled, Total ([5]; 5% enkephalin): 0.1136%; Residual amount of enkephalin remaining in tissues, % of instilled, Total ([5]; […] enkephalin): 0.3019%; Tx of decline of blood concentration [6]: less than 30 min; lowest blood concentration ([6]; in 5 hrs): 22 ng/mL

For Glucagon, which blood glucose peak (normal rabbits [7]; 50 ug glucagon i.v., peaked at 30 min) is on record?
Its blood glucose peak is 235 mg %.

What about the “blood glucose raised to” value (normal rabbits [7]; 25 ul of 0.2% glucagon instilled) of the same compound?
Its value is 204 mg %.

And the “blood glucose came down to” value (normal rabbits [7]; 25 ul of 0.2% glucagon instilled, in 2 hrs)?
Its value is 116 mg %.

What about the “blood glucose raised to” value (normal rabbits [7]; 25 ul of 1% glucagon instilled) of the same compound?
Its value is 248 mg %.

What about the “blood glucose declined to” value (normal rabbits [7]; 25 ul of 5% glucagon instilled, end of 6 hr) of the same compound?
The value was 160 mg %.

For polyoxyethylene-9-lauryl ether [BL-9], which “% Change in Blood Glucose Concentration” value (normal rabbits [1]) is on record?
The value was 42%.

And the “Blood Glucose Concentration After” value (normal rabbits [1])?
The value was 56 mg %.

And the “Blood Glucose Concentration Before” value (normal rabbits [1])?
The value was 97 mg %.
